# Key:
# Format in all cases: functional
# [1] = tested on: Staphylococcus aureus; test: Bactericidal activity against Staphylococcus aureus ATCC 29213 using sub-cultures from MIC method grown subsequently on Mueller-Hinton agar plates at 37 degC for 24 hrs; details: ATCC 29213, 24 h
# [2] = tested on: Enterococcus faecalis; test: Antimicrobial activity against Enterococcus faecalis ATCC 29212 using sub-cultures from MIC method grown subsequently on Mueller-Hinton agar plates at 37 degC for 24 hrs; details: ATCC 29212, 24 h
# [3] = tested on: Staphylococcus aureus; test: Antibiofilm activity against Staphylococcus aureus ATCC 29213 biofilms incubated at 37 degC for 16 hrs; details: ATCC 29213, 16 h
# [4] = tested on: Staphylococcus epidermidis; test: Antibiofilm activity against Staphylococcus epidermidis ATCC 12228 biofilms incubated at 37 degC for 16 hrs; details: ATCC 12228, 16 h
# [5] = tested on: Staphylococcus aureus; test: Antimicrobial activity against Staphylococcus aureus ATCC 29213 by broth microdilution method
# [6] = tested on: Enterococcus faecalis; test: Antimicrobial activity against Enterococcus faecalis ATCC 29212 by broth microdilution method
# [7] = tested on: Staphylococcus epidermidis; test: Antimicrobial activity against Staphylococcus epidermidis ATCC 12228 using sub-cultures from MIC method grown subsequently on Mueller-Hinton agar plates at 37 degC for 24 hrs; details: ATCC 12228, 24 h
# [8] = tested on: Staphylococcus epidermidis; test: Antimicrobial activity against Staphylococcus epidermidis ATCC 12228 by broth microdilution method
# [9] = tested on: Enterococcus faecalis; test: Antibiofilm activity against Enterococcus faecalis ATCC 29212 biofilms incubated at 37 degC for 16 hrs; details: ATCC 29212, 16 h
# [10] = tested on: Staphylococcus aureus; test: Potency index, ratio of MIC for vancomycin to MIC for compound against Staphylococcus aureus ATCC 29213 biofilms incubated at 37 degC for 16 hrs
SMILES,MBC [1] [µg/mL],MBC [2] [µg/mL],MIC [3] [µg/mL],MIC [4] [µg/mL],MIC [5] [µg/mL],MIC [6] [µg/mL],MBC [7] [µg/mL],MIC [8] [µg/mL],MIC [9] [µg/mL],Ratio [10]
Cn1c(C(=O)NN2C(=O)CSC2c2ccccc2)cc(Br)c1Br (configuration not stated),6.25,25,3.12,12.5,1.56,12.5,6.25,3.12,12.5,
COc1ccc(C2SCC(=O)N2NC(=O)c2cc(Br)c(Br)n2C)cc1 (configuration not stated),6.25,25,0.78,3.12,0.78,6.25,3.12,1.56,6.25,3
Cn1c(C(=O)NN2C(=O)CSC2c2ccc([N+](=O)[O-])cc2)cc(Br)c1Br (configuration not stated),6.25,25,0.78,3.12,0.78,12.5,6.25,1.56,12.5,3
COc1ccc(C2SCC(=O)N2NC(=O)c2cc(Br)c(Br)n2C)c(O)c1 (configuration not stated),6.25,25,1.56,3.12,0.78,12.5,3.12,1.56,12.5,2
COc1ccc(C2SCC(=O)N2NC(=O)c2cc(Br)c(Br)n2C)cc1O (configuration not stated),6.25,12.5,3.12,3.12,1.56,3.12,6.25,1.56,12.5,
Cn1c(C(=O)NN2C(=O)CSC2c2cc(O)ccc2O)cc(Br)c1Br (configuration not stated),3.12,12.5,1.56,3.12,0.78,6.25,3.12,1.56,12.5,2
Cn1c(C(=O)NN2C(=O)CSC2c2ccc(F)cc2)cc(Br)c1Br (configuration not stated),3.12,12.5,1.56,3.12,0.78,3.12,3.12,1.56,12.5,2
Cn1c(C(=O)NN2C(=O)CSC2c2ccc(Cl)cc2)cc(Br)c1Br (configuration not stated),3.12,25,1.56,3.12,0.78,12.5,3.12,1.56,12.5,2
Cn1c(C(=O)NN2C(=O)CSC2C/C=C/c2ccccc2)cc(Br)c1Br (configuration not stated),12.5,12.5,6.12,6.25,6.25,25,12.5,25,6.25,

# Source: ChEMBL document CHEMBL2203132, “Synthesis and antibiofilm activity of marine natural product-based 4-thiazolidinones derivatives” (2012)
